Assay results: patent US8329755B2, “Methods for treating retroviral infections” (Roche Palo Alto LLC, priority 2004, dated 2012)

Structure (SMILES)	melting point [°C]
N#Cc1cc(C#N)cc(Sc2cc(CC(=O)Nc3ccc(S(N)(=O)=O)cc3)ccc2Cl)c1 [Compound I-242, 2-[4-Chloro-3-(3,5-dicyano-phenylsulfanyl)-phenyl]-N-(4-sulfamoyl-phenyl)-acetamide]	247.9 to 250.9
NS(=O)(=O)c1ccc(NC(=O)Cc2ccc(Cl)c(Sc3cc(Cl)ccc3Br)c2)cc1 [Compound I-243, 2-[3-(2-Bromo-5-chloro-phenylsulfanyl)-4-chloro-phenyl]-N-(4-sulfamoyl-phenyl)-acetamide]	220 to 222.3
O=C(Cc1ccc(Cl)c(Sc2cc(Cl)ccc2Br)c1)Nc1ccccc1Cl [Compound I-244, 2-[3-(2-Bromo-5-chloro-phenylsulfanyl)-4-chloro-phenyl]-N-(2-chloro-phenyl)-acetamide]	172.2 to 172.8
O=C(Cc1ccc(Cl)c(C(=O)c2cc(Cl)cc(Cl)c2)c1)Nc1ccccc1Cl [Compound I-247, 2-[4-Chloro-3-(3,5-dichloro-benzoyl)-phenyl]-N-(2-chloro-phenyl)-acetamide]	197.2 to 198.1
O=C(Cc1ccc(Cl)c(C(=O)c2cc(Cl)ccc2Cl)c1)Nc1ccccc1Cl [Compound I-248, 2-[4-Chloro-3-(2,5-dichloro-benzoyl)-phenyl]-N-(2-chloro-phenyl)-acetamide]	121 to 123.5
Cc1cc(S(N)(=O)=O)ccc1NC(=O)Cc1ccc(Cl)c(C(=O)c2cc(Cl)ccc2Cl)c1 [Compound I-249, 2-[4-Chloro-3-(2,5-dichloro-benzoyl)-phenyl]-N-(2-methyl-4-sulfamoyl-phenyl)-acetamide]	214.9 to 218.8
NS(=O)(=O)c1ccc(NC(=O)Cc2ccc(Cl)c(C(=O)c3cc(Cl)ccc3Cl)c2)cc1 [Compound I-250, 2-[4-Chloro-3-(2,5-dichloro-benzoyl)-phenyl]-N-(4-sulfamoyl-phenyl)-acetamide]	213.9 to 216.1
O=C(Cc1ccc(Cl)c(C(=O)c2cc(Cl)ccc2Cl)c1)Nc1ccccc1 [Compound I-251, 2-[4-Chloro-3-(2,5-dichloro-benzoyl)-phenyl]-N-phenyl-acetamide]	167.1 to 168.5
Cc1cc(S(N)(=O)=O)ccc1NC(=O)Cc1ccc(Cl)c(C(=O)c2cc(Cl)cc(Cl)c2)c1 [Compound I-252, 2-[4-Chloro-3-(3,5-dichloro-benzoyl)-phenyl]-N-(2-methyl-4-sulfamoyl-phenyl)-acetamide]	263 to 264.4
NS(=O)(=O)c1ccc(NC(=O)Cc2ccc(Cl)c(C(=O)c3cc(Cl)ccc3Cl)c2)c(Cl)c1 [Compound I-253, 2-[4-Chloro-3-(2,5-dichloro-benzoyl)-phenyl]-N-(2-chloro-4-sulfamoyl-phenyl)-acetamide]	197 to 199.6
Cc1cc(CC(=O)Nc2ccc(S(N)(=O)=O)cc2)cc(C(=O)c2ccc(Cl)cc2)c1 [Compound I-254, 2-[3-(4-Chloro-benzoyl)-5-methyl-phenyl]-N-(4-sulfamoyl-phenyl)-acetamide]	260.9 to 263.3
Cc1cc(CC(=O)Nc2ccc(S(N)(=O)=O)cc2C)cc(C(=O)c2ccccc2Cl)c1 [Compound I-256, 2-[3-(2-Chloro-benzoyl)-5-methyl-phenyl]-N-(2-methyl-4-sulfamoyl-phenyl)-acetamide]	207.7 to 209.3
Cc1cc(CC(=O)Nc2ccccc2Cl)cc(C(=O)c2ccc(Cl)cc2)c1 [Compound I-258, 2-[3-(4-Chloro-benzoyl)-5-methyl-phenyl]-N-(2-chloro-phenyl)-acetamide]	134.7 to 135.5
Cc1cc(CC(=O)Nc2ccccc2Cl)cc(C(=O)c2ccccc2Cl)c1 [Compound I-259, 2-[3-(2-Chloro-benzoyl)-5-methyl-phenyl]-N-(2-chloro-phenyl)-acetamide]	125.1 to 127
Cc1cc(CC(=O)Nc2ccc(S(N)(=O)=O)cc2C)cc(C(=O)c2cccc(Cl)c2)c1 [Compound I-260, 2-[3-(3-Chloro-benzoyl)-5-methyl-phenyl]-N-(2-methyl-4-sulfamoyl-phenyl)-acetamide]	210.3 to 211.6
Cc1cc(CC(=O)Nc2ccc(S(N)(=O)=O)cc2)cc(C(=O)c2cccc(Cl)c2)c1 [Compound I-261, 2-[3-(3-Chloro-benzoyl)-5-methyl-phenyl]-N-(4-sulfamoyl-phenyl)-acetamide]	211 to 213.1
Cc1cc(CC(=O)Nc2ccccc2Cl)cc(C(=O)c2cccc(Cl)c2)c1 [Compound I-262, 2-[3-(3-Chloro-benzoyl)-5-methyl-phenyl]-N-(2-chloro-phenyl)-acetamide]	113 to 113.8
Cc1cc(CC(=O)Nc2ccc(S(N)(=O)=O)cc2)cc(C(=O)c2ccccc2Cl)c1 [Compound I-263, 2-[3-(2-Chloro-benzoyl)-5-methyl-phenyl]-N-(4-sulfamoyl-phenyl)-acetamide]	165 to 167
COc1ccc(CC(=O)Nc2ccc(S(N)(=O)=O)cc2C)cc1C(=O)c1cc(Br)ccc1Cl [Compound I-264, 2-[3-(5-Bromo-2-chloro-benzoyl)-4-methoxy-phenyl]-N-(2-methyl-4-sulfamoyl-phenyl)-acetamide]	177 to 177.9
Cc1cc(S(N)(=O)=O)ccc1NC(=O)Cc1ccc(C)c(C(=O)c2cc(C#N)ccc2C)c1 [Compound I-265, 2-[3-(5-Cyano-2-methyl-benzoyl)-4-methyl-phenyl]-N-(2-methyl-4-sulfamoyl-phenyl)-acetamide]	224.3 to 228.1
Cc1ccc(C#N)cc1C(=O)c1cc(CC(=O)Nc2ccc(S(N)(=O)=O)cc2)ccc1C [Compound I-266, 2-[3-(5-Cyano-2-methyl-benzoyl)-4-methyl-phenyl]-N-(4-sulfamoyl-phenyl)-acetamide]	229.6 to 231.1
Cc1ccc(C#N)cc1C(=O)c1cc(CC(=O)Nc2ccccc2Cl)ccc1C [Compound I-267, N-(2-Chloro-phenyl)-2-[3-(5-cyano-2-methyl-benzoyl)-4-methyl-phenyl]-acetamide]	129.4 to 131.6
Cc1cc(CC(=O)Nc2ccc(S(N)(=O)=O)cc2)cc(C(=O)c2cc(Cl)cc(Cl)c2)c1 [Compound I-269, 2-[3-(3,5-Dichloro-benzoyl)-5-methyl-phenyl]-N-(4-sulfamoyl-phenyl)-acetamide]	226 to 227.9
